Measured values from the supplement of paper PMC9013687.

Experiments:
[1] = tested on: Danio rerio embryo; test: EC50 Head trunk angle_Decrease; details: exposure time: 2 dpf
Procedure: (§1)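 Zebrafish embryos (UFZ-OBI strain) were exposed from 2 hpf for 48 h (2 dpf) or 96 h (4 dpf) at 28 °C; spontaneous tail coiling was scored at 25 hpf. Morphological features from automated image analysis (FishInspector), heart rate and locomotor response were fitted with drc models. Quantal endpoints were dichotomised at 2.5 SD from controls and fitted with a log-logistic model; heart rate, pigmentation and STC were normalised to the replicate control mean. Betamethasone was tested as betamethasone dipropionate, diflorasone as diflorasone diacetate.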

[2] = tested on: Danio rerio embryo; test: EC10 Head trunk angle_Decrease; higher = less potent; details: exposure time: 2 dpf
Procedure: as §1

[3] = tested on: Danio rerio embryo; test: EC10 Lack of SB; higher = less potent; details: exposure time: 4 dpf
Procedure: as §1

[4] = tested on: Danio rerio embryo; test: EC20 Otolith; higher = less potent; details: exposure time: 2 dpf
Procedure: as §1

[5] = tested on: Danio rerio embryo; details: exposure time: 4 dpf
Procedure: as §1

[6] = tested on: Danio rerio embryo; test: EC20 Eye size_Decrease; higher = less potent
Procedure: as §1

[7] = tested on: Danio rerio embryo; test: EC10 STC decrease; higher = less potent; details: exposure time: 25 h
Procedure: as §1

[8] = tested on: Danio rerio embryo; test: EC20 Head size_Decrease; higher = less potent
Procedure: as §1

[9] = tested on: Danio rerio embryo; test: EC10 Heart rate; higher = less potent
Procedure: as §1

[10] = tested on: Danio rerio embryo; test: EC10 Otolith; higher = less potent; details: exposure time: 2 dpf
Procedure: as §1

[11] = tested on: Danio rerio embryo; test: EC10 Eye size_Decrease; higher = less potent
Procedure: as §1

[12] = tested on: Danio rerio embryo; test: EC10 Head size_Decrease; higher = less potent
Procedure: as §1

[13] = tested on: Danio rerio embryo; test: EC20 STC decrease; higher = less potent; details: exposure time: 25 h
Procedure: as §1

[14] = tested on: Danio rerio embryo; test: EC20 Heart rate; higher = less potent
Procedure: as §1

[15] = tested on: Danio rerio embryo; test: EC50 Head size_Decrease
Procedure: as §1

[16] = tested on: Danio rerio embryo
Procedure: as §1

[17] = tested on: Danio rerio embryo; test: EC50 Eye size_Decrease
Procedure: as §1

[18] = tested on: Danio rerio embryo; test: EC20 Pigmentation decrease; higher = less potent; details: exposure time: 2 dpf
Procedure: as §1

[19] = tested on: Danio rerio embryo; test: EC20 LMR ligth decrease; higher = less potent; details: exposure time: 4 dpf
Procedure: as §1

[20] = tested on: Danio rerio embryo; test: EC10 LMR ligth decrease; higher = less potent; details: exposure time: 4 dpf
Procedure: as §1

[21] = tested on: Danio rerio embryo; test: EC10 Pigmentation decrease; higher = less potent; details: exposure time: 2 dpf
Procedure: as §1

[22] = tested on: Danio rerio embryo; test: EC20 STC increase; higher = less potent; details: exposure time: 25 h
Procedure: as §1

[23] = tested on: Danio rerio embryo; test: EC10 STC increase; higher = less potent; details: exposure time: 25 h
Procedure: as §1

[24] = tested on: Danio rerio embryo; test: EC10 Pigmentation increase; higher = less potent; details: exposure time: 4 dpf
Procedure: as §1

[25] = tested on: Danio rerio embryo; test: EC20 Pigmentation increase; higher = less potent; details: exposure time: 4 dpf
Procedure: as §1

[26] = tested on: Danio rerio embryo; test: EC50 Mandibular arch distance_Decrease; details: exposure time: 4 dpf
Procedure: as §1

[27] = tested on: Danio rerio embryo; test: EC10 Mandibular arch distance_Decrease; higher = less potent; details: exposure time: 4 dpf
Procedure: as §1

[28] = tested on: Danio rerio embryo; test: EC20 LMR ligth increase; higher = less potent; details: exposure time: 4 dpf
Procedure: as §1

[29] = tested on: Danio rerio embryo; details: exposure time: 2 dpf
Procedure: as §1

[30] = tested on: Danio rerio embryo; test: EC10 LMR ligth increase; higher = less potent; details: exposure time: 4 dpf
Procedure: as §1

[31] = tested on: Danio rerio embryo; test: EC20 Mandibular arch distance_Decrease; higher = less potent; details: exposure time: 4 dpf
Procedure: as §1

[32] = tested on: Danio rerio embryo; test: EC20 STC bell shape; higher = less potent; details: exposure time: 25 h
Procedure: as §1

[33] = tested on: Danio rerio embryo; test: EC10 STC bell shape; higher = less potent; details: exposure time: 25 h
Procedure: as §1

SMILES	EC50 Head trunk angle Decrease [1]	EC10 Head trunk angle Decrease [2]	EC10 Lack of SB [3]	EC50 Lack of SB [5]	EC20 Eye size Decrease ([6]; exposure time: 2 dpf)	EC20 Eye size Decrease ([6]; exposure time: 4 dpf)	EC20 Head size Decrease ([8]; exposure time: 2 dpf)	EC10 Heart rate ([9]; exposure time: 4 dpf)	EC10 Eye size Decrease ([11]; exposure time: 2 dpf)	EC10 Eye size Decrease ([11]; exposure time: 4 dpf)	EC10 Head size Decrease ([12]; exposure time: 2 dpf)	EC20 Heart rate ([14]; exposure time: 4 dpf)	EC50 Head size Decrease ([15]; exposure time: 2 dpf)	EC50 Heart rate ([16]; exposure time: 4 dpf)	EC50 Eye size Decrease ([17]; exposure time: 2 dpf)	EC50 Eye size Decrease ([17]; exposure time: 4 dpf)	EC20 Pigmentation decrease [18]	EC10 Pigmentation decrease [21]	EC10 Heart rate ([9]; exposure time: 2 dpf)	EC20 Heart rate ([14]; exposure time: 2 dpf)	other results
CCO/N=C(\CC)C1=C(O)CC(c2c(C)cc(C)cc2C)CC1=O (centres undefined) [Tralkoxydim]	120 µM	73.6 µM	45.3 µM	63.2 µM	122 µM	94.7 µM	103 µM	46.5 µM	103 µM	89.7 µM	74.7 µM	49.9 µM	176 µM	56.3 µM	164 µM	104 µM	–	–	–	–	EC20 Otolith [4]: 160 µM; EC10 STC decrease [7]: 127 µM; EC10 Otolith [10]: 126 µM; EC20 STC decrease [13]: 142 µM
CN(Cc1cnc2nc(N)nc(N)c2n1)c1ccc(C(=O)N[C@@H](CCC(=O)O)C(=O)O)cc1 [Methotrexate]	252 µM	148 µM	82.2 µM	108 µM	–	116 µM	–	–	–	96.2 µM	–	–	–	–	–	162 µM	235 µM	185 µM	–	–	EC20 LMR ligth decrease [19]: 53.8 µM; EC10 LMR ligth decrease [20]: 32.5 µM
O=C(O)CCc1nc(-c2ccccc2)c(-c2ccccc2)o1 [Oxaprozin]	–	–	7.85 µM	10.5 µM	61.2 µM	22.7 µM	15.1 µM	23 µM	53.1 µM	20.6 µM	10.8 µM	29.1 µM	26.6 µM	–	78.1 µM	26.7 µM	–	–	28 µM	52.1 µM	EC20 STC increase [22]: 12.4 µM; EC10 STC increase [23]: 6.23 µM; EC10 Pigmentation increase [24]: 29.2 µM; EC20 Pigmentation increase [25]: 31 µM; EC20 Head size Decrease ([8]; exposure time: 4 dpf): 19.7 µM; EC10 Head size Decrease ([12]; exposure time: 4 dpf): 12.4 µM; EC50 Head size Decrease ([15]; exposure time: 4 dpf): 43.4 µM; EC50 Heart rate ([16]; exposure time: 2 dpf): 150 µM
CC(C)(C)C(O)C(Oc1ccc(Cl)cc1)n1cncn1 (centres undefined) [Triadimenol]	152 µM	94.5 µM	19.6 µM	20.9 µM	159 µM	90.2 µM	147 µM	64.4 µM	138 µM	81.1 µM	132 µM	96.8 µM	177 µM	194 µM	200 µM	108 µM	98.2 µM	76.2 µM	13.7 µM	23.2 µM	EC50 Mandibular arch distance Decrease [26]: 169 µM; EC10 STC decrease [7]: 118 µM; EC20 STC decrease [13]: 135 µM; EC10 Mandibular arch distance Decrease [27]: 116 µM; EC20 LMR ligth increase [28]: 17.3 µM; EC50 Pigmentation decrease [29]: 152 µM; EC10 LMR ligth increase [30]: 8.63 µM; EC50 Heart rate ([16]; exposure time: 2 dpf): 56.8 µM; EC20 Mandibular arch distance Decrease [31]: 133 µM
Cc1ccc(-c2cc(C(F)(F)F)nn2-c2ccc(S(N)(=O)=O)cc2)cc1 [Celecoxib]	–	–	8.08 µM	9.14 µM	–	10.5 µM	–	2.25 µM	–	9.06 µM	–	4.72 µM	–	–	–	13.4 µM	27.1 µM	23.7 µM	10.3 µM	16.1 µM	EC20 STC bell shape [32]: 23.8 µM; EC10 STC bell shape [33]: 20.4 µM; EC50 Pigmentation decrease [29]: 34 µM
CCCNCC(O)COc1ccccc1C(=O)CCc1ccccc1 (centres undefined) [Propafenone]	–	–	6.08 µM	7.65 µM	–	–	–	2.29 µM	–	–	–	4.78 µM	–	16.8 µM	–	–	49.3 µM	43 µM	1 µM	4.31 µM	EC10 Pigmentation increase [24]: 23.1 µM; EC10 STC decrease [7]: 6.36 µM; EC20 Pigmentation increase [25]: 26.5 µM; EC20 Head size Decrease ([8]; exposure time: 4 dpf): 18.3 µM; EC10 Head size Decrease ([12]; exposure time: 4 dpf): 13.4 µM; EC20 STC decrease [13]: 13.3 µM; EC20 LMR ligth increase [28]: 17.3 µM; EC50 Head size Decrease ([15]; exposure time: 4 dpf): 31 µM; EC50 Pigmentation decrease [29]: 62.3 µM; EC10 LMR ligth increase [30]: 16.4 µM; EC50 Heart rate ([16]; exposure time: 2 dpf): 52.1 µM
CC(C)(C)C(O)/C(=C/c1ccc(Cl)cc1Cl)n1cncn1 (centres undefined) [Diniconazole]	4.5 µM	2.62 µM	–	–	6.78 µM	3.61 µM	4.37 µM	5.23 µM	6.22 µM	2.97 µM	3.64 µM	7 µM	5.99 µM	11.3 µM	7.85 µM	5.05 µM	7.3 µM	6.17 µM	4.6 µM	6.61 µM	EC20 STC increase [22]: 7.82 µM; EC10 STC increase [23]: 6.86 µM; EC20 LMR ligth decrease [19]: 0.855 µM; EC50 Mandibular arch distance Decrease [26]: 6.4 µM; EC10 Pigmentation increase [24]: 2.49 µM; EC10 LMR ligth decrease [20]: 0.478 µM; EC20 Pigmentation increase [25]: 4.99 µM; EC10 Mandibular arch distance Decrease [27]: 1.96 µM; EC20 Mandibular arch distance Decrease [31]: 3.04 µM
